# From patent US20160220464A1 (WUHAN OPTICS VALLEY BRIDGEBIOMED INTERNATIONAL CORPORATION, priority 2013, published 2016)
# Experiment: Transdermal experiment, modified Franz diffusion pool with HPLC
# Assay type: in vitro ADME, mice
# Experimental: To explore the optimized dosage form and preparation technology of BK B2 receptor agonist, we selected YLB-01, which has the long-term stability for preservation, as a sample from three agonists (YLB-01, YLB-02, YLB-03) and prepared three kinds of dosage form, analyzed by transdermal experiments and high-performance liquid phase (HPLC) content analysis. Three dosage forms (liniments, gels and ointments) of […] were prepared in different concentrations (0.03%, 0.3% and 3%). Then, different proportional of transdermal promoters was added to perform transdermal experiments. The transdermal effects of three kinds of YLB-01 formulation were evaluated by the modified Franz diffusion pool. Cumulative transmittance of liniments, gels and ointments in 0.3% concentration of YLB-01 for 9 hours was measured respectively. Results: (1) The best transdermal promoter ratio of liniments, gels and ointments were 2% propylene glycol+2% azone, 4% propylene glycol, and 5% propylene glycol+2% azone. (2) 9 hours of cumulative transmittance of 0.03%, 0.3%, 3% liniments were 4.23%, 10.96% and 12.17%, respectively; 9 hours of cumulative transmittance of 0.03%, 0.3%, 3% gels were 2.29%, 4.43% and 13.57%, respectively; 9 hours of cumulative transmittance of 0.03%, 0.3%, 3% ointments were 2.08%, 1.12% and 0.73%, respectively. Conclusion: The different contents of […] liniments, gels and ointments are all have some transdermal abilities, and the abilities are: liniments>gels>ointments.
# To determine the optimal dosage form of YLB-01 and best transdermal promoter, we plan to use transdermal test combined with HPLC content analysis as screening basis, research on dosage forms and transdermal promoter to achieve a stable and reliable preparation. The samples were analyzed by HPLC on an Agilent TC-C18 column (150 mm×4.6 mm, 5 microns). The mobile phases were methanol and 0.02 mol/L potassium dihydrogen phosphate buffer (66:34, pH was adjusted to 4 with phosphoric acid). Flow rate: 1 ml/min; Column temperature: 30° C. Excitation wavelength and fluorescent wavelength of fluorescence detection were 267 nm and 380 nm, respectively. Under this condition, YLB-01 retention time was 3.898 min, target compounds peak shape is good which could be effectively separated, and no impurity peak, baseline is smooth (shown as FIG. 6).
# The abdominal hair of mice was removed. The mice were sacrificed by spinal dislocation. The subcutaneous fat was removed, and the depilous skin of abdomen was reserved in 4° C. physiological saline. Skin was fixed between the supply room and reception room facing the supply room. The effective permeability area was 4 cm^2. Receiving liquid was physiological saline, and receiving chamber volume V were 25 ml. 1.0 g of the tested sample was coated evenly on the effective skin surface with the electromagnetic stirrer run at a speed of 300 r/min. To take out the receiving liquid in 1, 2, 3, 4, 5, 6, 7, 8, 9 h, 0.5 ml/h (Complementing the same quantity each time), the samples were centrifuged and the supernatant was took for HPLC analysis.
# After the detection, the cumulative transmittance P (%) was calculated:
# V: the volume of receiving liquid in receiving room; Ci: drug concentration in receiving liquid between the time to last time of the i time; Cn: drug concentration in the receiving liquid when the n time taking the sample; M: drug content in the sample.
structure (smiles),measurement,setting,value
"CNC(=O)c1ccc(CCC(=O)NCC(=O)N(C)c2ccc(Cl)c(COc3cccc4c3nc(OC)n4Cc3ccccn3)c2Cl)cc1 [YLB-01, 4-(3-2-((2,4-dichloro-3-((2-methoxy-1-(pyridine-2ylmethyl)-1H-benzo[d]imidazol-4-yloxy)methyl)phenyl)(methyl)amino-2-oxoethylamino)-3-oxopropyl)-N-methylbenzamid]",Cumulative Penetration Rate of 9 Hours,"gels, 0.03% YLB-01, 4% propylene glycol, 0% azone",2.29%
same,Cumulative Penetration Rate of 9 Hours,"gels, 0.3% YLB-01, 4% propylene glycol, 0% azone",4.43%
same,Cumulative Penetration Rate of 9 Hours,"gels, 3% YLB-01, 4% propylene glycol, 0% azone",13.57%
same,Cumulative Penetration Rate of 9 Hours,"liniments, 0.03% YLB-01, 2% propylene glycol + 2% azone",4.23%
same,Cumulative Penetration Rate of 9 Hours,"liniments, 0.3% YLB-01, 2% propylene glycol + 2% azone",10.96%
same,Cumulative Penetration Rate of 9 Hours,"liniments, 3% YLB-01, 2% propylene glycol + 2% azone",12.17%
same,Cumulative Penetration Rate of 9 Hours,"ointments, 0.03% YLB-01, 5% propylene glycol + 2% azone",2.08%
same,Cumulative Penetration Rate of 9 Hours,"ointments, 0.3% YLB-01, 5% propylene glycol + 2% azone",1.12%
same,Cumulative Penetration Rate of 9 Hours,"ointments, 3% YLB-01, 5% propylene glycol + 2% azone",0.73%
